Measured values as given in patent US9650390B2, “Water-soluble taxane derivatives and uses thereof” (priority 2014, dated 2017).
Counter-ions that a name gives are not always drawn.

Key:
[1] = In vitro dissociation in blood plasma of rat; type: in vitro ADME, SD rats; details: fresh SD rat plasma, 37° C.; for Sampling time/Dissociation percent (%) 2 min: 2 min incubation; for Sampling time/Dissociation percent (%) 5 min: 5 min incubation; for Sampling time/Dissociation percent (%) 10 min: 10 min incubation
Procedure: The obtained water soluble taxane derivatives of the following formulae were formulated as 0.2 mg/ml aqueous solutions. […] After 2 min, 5 min and 10 min of incubation, 0.2 ml of solutions were respectively taken from each of the samples, and added to acetonitrile (0.4 ml) cooled to −20° C. for precipitation of protein.

[2] = In vitro dissociation in blood plasma of rabbit; type: in vitro ADME, New Zealand white rabbits; details: fresh New Zealand white rabbit plasma, 37° C.
Procedure: The obtained water soluble taxane derivatives of the following formulae were formulated as 0.2 mg/ml aqueous solutions. […]

[3] = test system: human prostate cancer PC-3; assay: Inhibitory activity of docetaxel derivatives on subcutaneously xenografted tumor PC-3 in nude mice; type: in vivo; details: 33.6 mg/kg, D0 IV; for Weight change (%) D6: nude mice; for T/C (%) D20 / Tumor volume (mm^3) (D20) / Tumor inhibitory percent (%) D20 / Tumor volume (mm^3) (D0): PC-3 xenograft in nude mice; for Tumor inhibitory percent (%) D20: P = 0.000 vs control; for Tumor volume (mm^3) (D0): baseline at grouping (D0)
Source text: Purpose: to evaluate and compare the inhibitory activity of the water soluble docetaxel derivatives and docetaxel on subcutaneously xenografted tumor of human prostate cancer PC-3 in nude mice
Human prostate cancer PC-3 cells were subcutaneously inoculated into nude mice. After the tumor volume reached 100-150 mm^3, the animals were randomly divided into several groups, and administered with the water soluble docetaxel derivatives of the following formula and docetaxel, respectively once on the same day (D0). The tumor volume was measured 2-3 times per week, the animals were weighed and the data were recorded until day 20 (D20) after grouping.
The tumor volume (V) was calculated according to the equation: V=½×a×b^2, wherein a and b represent the length and the width, respectively.
T/C (%)=(T−T0)/(C−C0)×100, wherein T and C represent the tumor volume at the end of the experiment; and T0 and C0 represent the tumor volume at the beginning of the experiment.

Molecule	Sampling time/Dissociation percent (%) 2 min [1] [%]	Sampling time/Dissociation percent (%) 5 min [1] [%]	Sampling time/Dissociation percent (%) 10 min [1] [%]	Sampling time/Dissociation percent (%) 2 min [2] [%]	Sampling time/Dissociation percent (%) 5 min [2] [%]	Sampling time/Dissociation percent (%) 10 min [2] [%]	Weight change (%) D6 [3] [%]	T/C (%) D20 [3] [%]	Tumor volume (mm^3) (D20) [3]	Tumor inhibitory percent (%) D20 [3] [%]	Tumor volume (mm^3) (D0) [3]
2′-O-[4-(aziridin-1-yl)amino-2,2-difluoroheptanoyl]docetaxel methanesulfonate [Compound 14]	42.1	55.7	72.5								
CCCCC(CC(F)(C(=O)OC(C(=O)OC1CC2(O)C(OC(=O)c3ccccc3)C3C4(OC(C)=O)COC4CC(O)C3(C)C(=O)C(OC(C)=O)C(=C1C)C2(C)C)C(NC(=O)c1ccccc1)c1ccccc1)C(F)(F)F)N(C)C1CCCC1.Cl (mixture of isomers) [Compound C15, 2′-O-[4-N-methyl-N-cyclopentylamino-2-trifluoromethyl-2-fluorooctanoyl]paclitaxel hydrochloride]	34.2	45.3	58.2								
CO[C@H]1C(=O)[C@]2(C)[C@@H](OC)C[C@H]3OC[C@@]3(OC(C)=O)[C@H]2[C@H](OC(=O)c2ccccc2)[C@]2(O)C[C@H](OC(=O)[C@H](OC(=O)[C@H](F)CCN(C)C)[C@@H](NC(=O)OC(C)(C)C)c3ccccc3)C(C)=C1C2(C)C [Compound 07, 2′-O-[4-N,N-dimethylamino-2(R)-fluorobutyryl]cabazitaxel hydrochloride]	49.5	89.6	100	79.2	95.5	100					
CO[C@H]1C(=O)[C@]2(C)[C@@H](OC)C[C@H]3OC[C@@]3(OC(C)=O)[C@H]2[C@H](OC(=O)c2ccccc2)[C@]2(O)C[C@H](OC(=O)[C@H](OC(=O)[C@@H](F)CCN(C)C)[C@@H](NC(=O)OC(C)(C)C)c3ccccc3)C(C)=C1C2(C)C.Cl [Compound 08, 2′-O-[4-N,N-dimethylamino-2(S)-fluorobutyryl]cabazitaxel hydrochloride]	47.6	87.6	100	89.9	93.2	100					
COC1C(=O)C2(C)C(OC)CC3OCC3(OC(C)=O)C2C(OC(=O)c2ccccc2)C2(O)CC(OC(=O)C(OC(=O)C(F)CCN(C)C)C(NC(=O)OC(C)(C)C)c3ccccc3)C(C)=C1C2(C)C.Cl [Compound 09, 2′-O-[4-N,N-dimethylamino-2(R,S)-fluorobutyryl]cabazitaxel hydrochloride]	47.8	89.1	100	83.2	97.1	100					
COC1C(=O)C2(C)C(OC)CC3OCC3(OC(C)=O)C2C(OC(=O)c2ccccc2)C2(O)CC(OC(=O)C(OC(=O)C(CCN)C(F)F)C(NC(=O)OC(C)(C)C)c3ccccc3)C(C)=C1C2(C)C.O=S(=O)([O-])O.[Na+] [Compound 10, 2′-O-[4-amino-2(R)-difluoromethylbutyryl]cabazitaxel sodium bisulfate salt]	45.2	86.5	96.8	38.1	63.2	80.3					
CCN(CC)CC[C@](C)(C(=O)O[C@@H](C(=O)O[C@H]1C[C@@]2(O)[C@@H](OC(=O)c3ccccc3)[C@@H]3[C@]4(OC(C)=O)CO[C@@H]4C[C@H](OC)[C@@]3(C)C(=O)[C@H](OC)C(=C1C)C2(C)C)[C@@H](NC(=O)OC(C)(C)C)c1ccccc1)C(F)(F)F.CS(=O)(=O)O [Compound 11, 2′-O-[4-N,N-diethylamino-2-methyl-2(R)-2-trifluoromethylbutyryl]cabazitaxel methanesulfonate]	52.3	89.6	97.2	56.2	80.5	92.1					
CCN(C)C(C)C[C@H](CC(F)F)C(=O)O[C@@H](C(=O)O[C@H]1C[C@@]2(O)[C@@H](OC(=O)c3ccccc3)[C@@H]3[C@]4(OC(C)=O)CO[C@@H]4C[C@H](O)[C@@]3(C)C(=O)[C@H](O)C(=C1C)C2(C)C)[C@@H](NC(=O)OC(C)(C)C)c1ccccc1.Cl (stereo partly drawn) [Compound 12, 2′-O-[4-N-methyl-N-ethylamino-2(R)-2-difluoroethylvaleryl]docetaxel hydrochloride]	43.6	75.6	89.6	35.2	61.3	73.2					
CO[C@H]1C(=O)[C@]2(C)[C@@H](OC)C[C@H]3OC[C@@]3(OC(C)=O)[C@H]2[C@H](OC(=O)c2ccccc2)[C@]2(O)C[C@H](OC(=O)[C@H](OC(=O)[C@@H](CCN)C(F)F)[C@@H](NC(=O)OC(C)(C)C)c3ccccc3)C(C)=C1C2(C)C.O=S(=O)(O)O [Compound C10, 2′-O-[4-amino-2(R)-difluoromethylbutyryl]cabazitaxel sulfate]	45.6	87.1	97.3	48.9	68.4	91.3					
CCN(CC)CC[C@](C)(C(=O)O[C@@H](C(=O)O[C@H]1C[C@@]2(O)[C@@H](OC(=O)c3ccccc3)[C@@H]3[C@]4(OC(C)=O)CO[C@@H]4C[C@H](OC)[C@@]3(C)C(=O)[C@H](OC)C(=C1C)C2(C)C)[C@@H](NC(=O)OC(C)(C)C)c1ccccc1)C(F)(F)F.Cl [Compound C11, 2′-O-[4-N,N-diethylamino-2-methyl-2(R)-2-trifluoromethylbutyryl]cabazitaxel hydrochloride]	51.2	88.4	95.9	61.2	84.5	96.3					
CCCC(CC(F)(F)C(=O)O[C@@H](C(=O)O[C@H]1C[C@@]2(O)[C@@H](OC(=O)c3ccccc3)[C@@H]3[C@]4(OC(C)=O)CO[C@@H]4C[C@H](O)[C@@]3(C)C(=O)[C@H](O)C(=C1C)C2(C)C)[C@@H](NC(=O)OC(C)(C)C)c1ccccc1)N1CC1.Cl (some centres unmarked) [Compound C14, 2′-O-[4-(aziridin-1-yl)amino-2,2-difluoroheptanoyl]docetaxel hydrochloride]	41.9	54.4	71.3								
CCN(C)CCC(F)C(=O)OC(C(=O)OC1CC2(O)C(OC(=O)c3ccccc3)C3C4(OC(C)=O)COC4CC(O)C3(C)C(=O)C(O)C(=C1C)C2(C)C)C(NC(=O)OC(C)(C)C)c1ccccc1.CS(=O)(=O)O [Compound C25, 2′-O-[4-N-methyl-N-ethylamino-2(R)-fluorobutyryl]docetaxel methanesulfonate]							−13.6	−62	30.4 ± 11.1	143	113.8 ± 3.0
CCN(CC)CCC(F)C(=O)OC(C(=O)OC1CC2(O)C(OC(=O)c3ccccc3)C3C4(OC(C)=O)COC4CC(O)C3(C)C(=O)C(O)C(=C1C)C2(C)C)C(NC(=O)OC(C)(C)C)c1ccccc1.O=C(O)C=CC(=O)O [Compound C26, 2′-O-[4-N,N-diethylamino-2(S)-fluorobutyryl]docetaxel maleate]							−14.1	−52	32.4 ± 13.5	120	114.4 ± 2.8
CC(=O)O[C@@]12CO[C@@H]1C[C@H](O)[C@@]1(C)C(=O)[C@H](O)C3=C(C)[C@@H](OC(=O)[C@H](OC(=O)[C@H](F)CCN(C)C(C)C)[C@@H](NC(=O)OC(C)(C)C)c4ccccc4)C[C@@](O)([C@@H](OC(=O)c4ccccc4)[C@H]21)C3(C)C.Cl [Compound C27, 2′-O-[4-N-methyl-N-isopropylamino-2(R)-fluorobutyryl]docetaxel hydrochloride]							−14.4	−44	35.3 ± 14.7	101	116.3 ± 3.7
CC(=O)O[C@@]12CO[C@@H]1C[C@H](O)[C@@]1(C)C(=O)[C@H](O)C3=C(C)[C@@H](OC(=O)[C@H](OC(=O)[C@@H](CCN(C)C)C(F)(F)F)[C@@H](NC(=O)OC(C)(C)C)c4ccccc4)C[C@@](O)([C@@H](OC(=O)c4ccccc4)[C@H]21)C3(C)C.CS(=O)(=O)O [Compound C28, 2′-O-[4-N,N-dimethylamino-2(R)-2-trifluoromethylbutyryl]docetaxel methanesulfonate]							−13.9	−46	34.5 ± 12.6	105	113.5 ± 2.8
